This note sets out measurements from ChEMBL document CHEMBL3301472, “MMV Malaria Box HIV and cytotoxicity screening”.

A short description of data set [1]: MMV: MTT Cytotoxicity Assay Day 3 pi, U87-CD4-CCR5 cells, % cell death @ 5mM compound. To be noted: human, u87-cd4-ccr5, 5000 µM. It is filed as toxicity, cell-based.
Data set [2] in a line: MMV: MTT Cytotoxicity Assay Day 7 pi of Assay #6 (compound washed out Day 1 pi), U87-CD4-CCR5 cells, % cell death @ 5mM compound. It is filed as toxicity, cell-based. To be noted: human, u87-cd4-ccr5, 5000 µM.
The test system of data set [3] is Human immunodeficiency virus 1. Nature of the data set: MMV: HIV JRFL CCR5-tropic replication-competent virus, virus & compound washed out Day 1 pi, P24 ELISA Day 7 pi, U87-CD4-CCR5, % inhibition at 5 mM compound. The arrangement: dose or concentration left out as unconfirmed. The conditions noted are these: Human immunodeficiency virus 1, JR-FL. It is filed as functional. (ELISA stands for enzyme-linked immunosorbent assay.)

Data set [4] is described as follows: MMV: MTT Cytotoxicity Assay Day 3 pi, U87-CD4-CXCR4 cells, % cell death @ 5mM compound. It is filed as toxicity, cell-based. The conditions noted are these: human, u87-cd4-cxcr4, 5000 µM.
A short description of data set [5]: MMV: MTT Cytotoxicity Assay Day 7 pi of Assay #10 (NO washout), U87-CD4-CCR5 cells, % cell death @ 5mM compound. It is filed as toxicity, cell-based. To be noted: human, u87-cd4-ccr5, 5000 µM.
Data set [6] can be described thus: MMV: MTT Cytotoxicity Assay Day 7 pi of Assay #11 (NO washout), U87-CD4-CXCR4 cells, % cell death @ 5mM compound. It is filed as toxicity, cell-based. The conditions noted are these: human, u87-cd4-cxcr4, 5000 µM.
Data set [7] in a line: MMV: MTT Cytotoxicity Assay Day 7 pi of Assay #7 (compound washed out Day 1 pi), U87-CD4-CXCR4 cells, % cell death @ 5mM compound. It is filed as toxicity, cell-based. To be noted: human, u87-cd4-cxcr4, 5000 µM.

In general, inhibition refers to the drop in the measured response relative to a control, in per cent.

For the compound `Cc1ccc(-c2cc(C(=O)Nc3ccc(S(=O)(=O)N4CCCCC4)cc3)[nH]n2)c(O)c1`, the “% Cell Death” value in data set [1] was -5; in data set [2], 18; in data set [4] it was 11; in data set [5], 10; in data set [6] it was 16; in data set [7], -29. In data set [3], the inhibition was determined as 6%.

Consider `CCC(=O)Nc1nnc(Cc2ccc(OC)c(OC)c2)s1`, for which the “% Cell Death” value is recorded as 17 in data set [1]; -1 in data set [2]; 21 in data set [4]; 9 in data set [5]; -23 in data set [6]; -14 in data set [7]. Further, in data set [3], the inhibition was -1%.

Regarding `Clc1ccc2c(N3CCCC3)ccnc2c1`, the “% Cell Death” value is listed as 8 in data set [1]; 3 in data set [2]; 21 in data set [4]; 16 in data set [5]; -37 in data set [6]; 1 in data set [7]. Besides, the inhibition in data set [3] amounted to 5%.

Turning to `O=C(NCC(c1ccsc1)N1CCCCCC1)c1ccc(C(F)(F)F)cc1` (configuration not stated), the “% Cell Death” value is 10 in data set [1]; 12 in data set [2]; 23 in data set [4]; 19 in data set [5]; 12 in data set [6]; -26 in data set [7]. The inhibition in data set [3] was determined as 1%.

Take `CCn1c(SCC(=O)Nc2cc(C(F)(F)F)ccc2Cl)nc2ccccc2c1=O`: the “% Cell Death” value in data set [1] was -1; in data set [2], 23; in data set [4] it was 81; in data set [5] it was 19; in data set [6], 17; in data set [7], -27. For the same compound, the inhibition in data set [3] came out at 8%.

As for `Cc1cc(Nc2cccc(F)c2)nc(NCc2ccccc2)n1`, the “% Cell Death” value was 21 in data set [1]; 6 in data set [2]; 33 in data set [4]; 20 in data set [5]; -41 in data set [6]; -12 in data set [7]. For the same compound, the inhibition in data set [3] came to 5%.

Turning to `CCCCOC(=O)c1ccc(Nc2cc(C)nc3ccc(OC)cc23)cc1`, the “% Cell Death” value in data set [1] is 32; in data set [2] it was 16; in data set [4] it was 30; in data set [5], 21; in data set [6] it was -45; in data set [7], -10. Besides, in data set [3], the inhibition amounted to 0%.

On to `COc1ccc(N2CCN(C(CNC(=O)C3CCCCC3)c3ccc4c(c3)OCO4)CC2)cc1` (configuration not stated), for which the “% Cell Death” value amounted to 17 in data set [1]; 25 in data set [2]; 63 in data set [4]; 38 in data set [5]; 71 in data set [6]; 6 in data set [7]. In addition, the inhibition in data set [3] worked out at 10%.

In the case of `c1ccc2c(NCCc3c[nH]c4ccccc34)c3ccccc3nc2c1`, the “% Cell Death” value in data set [1] was 64; in data set [2] it was 29; in data set [4] it was 62; in data set [5], 20; in data set [6] it was 42; in data set [7], -4. Moreover, in data set [3], the inhibition was 5%.

In the case of `CN1CCN(c2ncnc3c2[nH]c2ccc(Cl)cc23)CC1`, the “% Cell Death” value is -11 in data set [1]; 29 in data set [2]; 27 in data set [4]; 31 in data set [5]; 1 in data set [6]; -25 in data set [7]. Besides, the inhibition in data set [3] is 10%.

Regarding `COc1cc2cc(C(=O)Nc3ccccc3)c(N)nc2cc1OC`, the “% Cell Death” value in data set [1] is 75; in data set [2] it was 0; in data set [4], 43; in data set [5], 95; in data set [6] it was 106; in data set [7] it was 51. In addition, the inhibition in data set [3] stood at 9%.

Take `CCOc1cccc2sc(N(Cc3cccnc3)C(=O)C3CCCCC3)nc12`: the “% Cell Death” value in data set [1] was found to be 2; in data set [2], 34; in data set [4], 9; in data set [5] it was 65; in data set [6] it was 52; in data set [7], 8. Besides, the inhibition in data set [3] was 4%.

In the case of `COc1ccc(-c2nc(N3CCN(C(=O)C4CCCCC4)CC3)c3c4c(sc3n2)CCCC4)cc1`, the “% Cell Death” value in data set [1] is 2; in data set [2], -3; in data set [4], 46; in data set [5], 113; in data set [6] it was 104; in data set [7] it was -26. Besides, in data set [3], the inhibition was 5%.

For `CCCOCc1cc(CN2CCN(c3cccc(Cl)c3)CC2)c(O)c2ncccc12`, the “% Cell Death” value in data set [1] is given as 24; in data set [2] it was -8; in data set [4], 31; in data set [5], 15; in data set [6], -57; in data set [7], -7. For the same compound, the inhibition in data set [3] was determined as 9%.

On to `Cc1sc2ncnc(Sc3nc4ccccc4[nH]3)c2c1C`, for which the “% Cell Death” value in data set [1] is 16; in data set [2], -6; in data set [4] it was 18; in data set [5] it was 27; in data set [6] it was -15; in data set [7], -5. The inhibition in data set [3] is -1%.

As to `CN1CCN(c2ccc(Nc3c4ccccc4nc4ccccc34)cc2)CC1`, the “% Cell Death” value is 11 in data set [1]; 22 in data set [2]; 22 in data set [4]; 19 in data set [5]; -32 in data set [6]; -14 in data set [7]. Further, the inhibition in data set [3] turned out to be 6%.

On to `C=CC12CCN(CC1)C(C(O)c1ccnc3ccc(OC)cc13)C2.Cl` (configuration not stated), for which the “% Cell Death” value was -14 in data set [1]; -12 in data set [2]; 27 in data set [4]; 27 in data set [5]; -24 in data set [6]; -23 in data set [7]. In addition, the inhibition in data set [3] was -2%.

As for `Oc1ccc(Cl)cc1CNc1nc2ccccc2[nH]1`, the “% Cell Death” value is listed as -44 in data set [1]; 10 in data set [2]; 10 in data set [4]; -8 in data set [5]; 24 in data set [6]; -38 in data set [7].

Turning to `CCN(CC)c1ccc(NC(=O)c2cccs2)cc1`, the “% Cell Death” value is 94 in data set [1]; 18 in data set [2]; 56 in data set [4]; 106 in data set [5]; 102 in data set [6]; 43 in data set [7].

Regarding `CCN(CC)CCCNc1nc(-c2ccc(Cl)cc2)nc2ccccc12`, the “% Cell Death” value in data set [1] is on record as -18; in data set [2] it was 13; in data set [4], 13; in data set [5] it was 18; in data set [6], -10; in data set [7] it was 18.
